Some results are limits rather than exact numbers.

For the compound `CC(=O)OCC(=O)c1cc(O)c(O)c([N+](=O)[O-])c1`, the melting point (in general, the temperature, or range, at which the solid turns liquid) was 166 to 168 °C. Then `O=C(C#CCCc1cccc(CF)n1)Nc1ccc(F)cc1`, with 110 °C; and `CCOC(=O)c1c(C)cc2nc(CO)n(-c3ccccc3Cl)c(=O)c2c1C`, with 151 to 152 °C. In the case of `O=C1CN(Cc2ccc(CCn3cnc4cc(-c5ccc(Cl)cc5)sc4c3=O)cc2)CCN1` it was 232 to 234 °C; in that of `CCOC(=O)c1[nH]c2cc(Cl)cc(Cl)c2c1NCCCC(=O)c1ccccc1`, 203 to 205 °C. Compound `NC(=O)C[C@H](NC(=O)CCc1ccc(OCc2ccccc2)cc1OCc1ccccc1)C(=O)N1CCN(Cc2ccccc2)CC1` came in with a melting point of 112 to 114 °C. Consider `O=C1Nc2cccnc2N(CCCCCCN2CCCCC2)c2ccccc21`, for which the melting point was in the range of 131 to 132 °C. Then `CCCCOCCOc1ccc(-c2ccc3c(c2)C=C(C(=O)Nc2ccc(C(O)c4ccccn4)c(OC)c2)CCN3C(=O)C(F)(F)F)cc1` (centres undefined), with 123 to 125 °C. In the case of `CCCCOc1c(CN2C(=O)c3ccccc3C2=O)n(CCNC(=O)OC)c(=O)c2cc(Cl)c(Cl)cc12` it was 241 to 243 °C; in that of `Cc1ccc(Cn2ccc(OCc3ccccc3)c(Br)c2=O)cc1`, 150 to 151 °C; in that of `COc1ccc(C2=NN(c3ccccn3)C(=O)CC2)cc1`, more than 300 °C. In the case of `Cc1ccc2c(c1)C(=O)c1nc3ccccc3c(=O)n1-2` it was 283 to 285 °C; in that of `CCCCc1[nH]c2ccc([N+](=O)[O-])cc2c1C(=O)c1ccc(OCCCN(CCCC)CCCC)cc1`, 116 °C.

`COC(=O)/C(=C/c1ccc(OCc2ccccc2)c([N+](=O)[O-])c1)N=[N+]=[N-]` displayed a melting point of 95 to 96 °C. Then `COCCOc1cc2ncc(C#N)c(Cl)c2cc1O`, with 174 to 175 °C. Then `O=C(O)Cc1cc2c(c(-c3ccccc3)c1)NC(C(F)(F)F)CC2` (centres undefined), with 131 to 132 °C; and `Cc1cccc(Nn2c(C)c(C)[nH]c2=S)c1`, with 230 °C. In turn, `COc1ccc(P2Oc3ccccc3-c3ccccc32)cc1` (centres undefined) displayed a melting point of 104 to 106 °C. In the case of `COc1cc(C(=O)Nc2ccc(N3CCOCC3)cc2C(C)=O)ccc1OCc1ccccc1` it was 192 to 194 °C; in that of `COC(=O)CCC(=O)c1ccc(-c2ccc(C(F)(F)F)cc2)cc1`, 140 to 142 °C. `CC(C)(C(=O)O)c1ccc(C(=O)Nc2cn3c4c(ccc3n2)OCC4)cc1` gave a melting point of 293 to 295 °C.

On to `C=CCOC(=O)[C@H](Cc1ccccc1)NC(=O)C(F)(F)F`, for which the melting point lay in the range of 44 to 45 °C.

The compound `O=C(O)Cc1onc(-c2ccccc2)c1-c1ccccc1` came in with a melting point of 153 to 157 °C. Take `O=[N+]([O-])c1cc(Cc2ccc[nH]2)cc(O)c1O`: the melting point was 115 to 118 °C.

Compound `O=c1c2c(oc3ccc(Br)cc13)CCCC2` yielded a melting point of 149 to 150 °C. In the case of `COc1ccc(CNc2ccccc2C(=O)Nc2ccc(Cl)c(C(F)(F)F)c2)cn1` it was 108 to 110 °C.

`CCN1CCN(c2c(F)cc3c(=O)c(C(=O)O)cn(CC)c3c2F)CC1`: the melting point is 236 to 239 °C. Then `O=C(c1ccccc1)c1ccc(OCCCCBr)cc1`, with 42 to 43 °C.

Turning to `Cn1cnc(S(=O)(=O)NCCCCCCNS(=O)(=O)c2cn(C)cn2)c1`, the melting point lay within 153 to 154 °C. In the case of `COC(CCc1cc(C(F)(F)F)cc(C(F)(F)F)c1)C(Cc1csc2ccccc12)NC(C)=O` (centres undefined) it was 120 to 121 °C; in that of `CCc1c(C)nc(OC)c(NC(=O)C(C)(C)C)c1Cc1cc(C)cc(C)c1`, 138 to 139 °C; in that of `Nc1ncnc2ncn([C@H]3C=C[C@@H](O)C3)c12` (racemic), 195 to 197 °C.

In turn, `CCCCc1nc(SC2CCCCC2)c(C(=O)O)n1Cc1cc2c(cc1Cl)OCO2` displayed a melting point of 257 °C. Compound `Cc1cccc(Cl)c1C(=O)N[C@@H](Cc1ccc(-c2cccn(C)c2=O)cc1)C(=O)O` had a melting point of 204 to 210 °C.

For the origin of these results see a melting point compilation (Tetko et al.; mined from patent text by program, amines drawn as free bases though some values may be those of a salt).
